Measurements: US20210223230A1, “Neamine Compositions and Methods of Use Thereof” (President and Fellows of Harvard College, priority 2008, published 2021)
Where “and” joins values, the source holds several entries; their conditions need not be identical. Identical values can stand only once. Entries after “also recorded” stand apart in the source; their conditions may differ. Like-named read-outs stand apart in the source and are kept apart here.

Assays:
LNCaP cells = experiment: LNCaP cell proliferation in phenol red-free and steroid-free medium; type: cell-based, human; settings: ANG 0.1 μg/ml, DHT 10 nM
Procedure: (a) ANG stimulates LNCaP cell proliferation in the absence of androgens. Cells were culture in phenol red-free and charcoal/dextran-stripped (steroid-free) FBS for 2 day and stimulated with DHT (10 nM), ANG (0.1 μg/ml), or a mixture of the two for the time indicated. (b) Dose dependence. ANG was added to the cells and cultured for 4 days. (c) Anti-ANG mAb 26-2F inhibits DHT-induced cell proliferation. LNCaP cells were stimulated with 10 nM DHT in the presence of 26-2F or a control non-immune IgG for 3 days. (d) ANG over-expression promotes LNCaP proliferation in vitro. The vector control (pCI-Neo) and ANG transfectants (pCI-ANG) were cultured in phenol red-free and steroid-free medium for the time indicated. (e) Xenograft growth in castrated SCID mice. A mixture of 70 μl cell suspension (1×10^6 cells) and 30 μl Matrigel was injected s.c. per mouse (8 per group). The mice were castrated or sham-operated at the same time. Tumors were inspected and measured twice a week and the animals were sacrificed after 8 weeks of observation. (f) Endogenous ANG of LNCaP cells is essential for androgen-induced rRNA transcription. LNCaP cells were cultured in phenol red-free and steroid-free medium and incubated with DHT (10 nM), ANG (0.1 μg/ml), anti-ANG mAb 26-2F (60 μg/ml) or a mixture of DHT and 26-2F for 2 h. […]

ANG [1] = experiment: Nuclear translocation of ANG; type: cell-based; settings: inhibitors tested
ANG [2] = settings: literature reports; cited from earlier work
angiogenesis = settings: literature reports; cited from earlier work
[3] = tested on: PC-3 human prostate cancer cells; experiment: Xenograft growth of PC-3 cell tumors in athymic mice; type: in vivo
Procedure: Male athymic mice were inoculated with 5×10^5 of PC-3 cells, and treated sub-cutaneously (s.c.) with PBS or neamine at a dose of 30 mg/kg body weight twice weekly for 8 weeks. Twelve mice were used per group. (A) Mice were examined by palpation for tumor appearance. (B) Tumor sizes were measured with a caliper and were expressed as length×width^2. At day 56, mice were sacrificed and tumor tissues were removed, photographed (C) and weighed (D).
Xenograft growth of PC-3 cell tumors. Five-week-old male athymic mice were inoculated s.c. with 100 μl of a mixture containing 5×10^5 PC-3 cells and 33 μl of Matrigel. The mice were treated s.c. with PBS or neamine (30 mg/kg) twice weekly for 8 weeks. Tumor sizes were measured every 3 days and recorded in mm^3 (Length×width^2). Mice were sacrificed at day 56 and the tumors were removed and the wet weights of the PC-3 tumors were recorded.

PC-3 cell tumor tissues = experiment: IHC and ISH of PC-3 xenograft tumor tissues (ANG localization, 47S rRNA, PCNA, vWF); type: in vivo, athymic mice
Procedure: PBS- and neamine-treated tumor tissues were fixed in formalin, embedded in paraffin, and sections of […] were cut. (A) Localization of ANG was determined by IHC with anti-human ANG monoclonal antibody 26-2F. […] (C) Proliferating cells were stained with an anti-PCNA monoclonal antibody (mAb). PCNA positive and total numbers of cells were counted in 5 randomly selected areas at 200× magnification. (D) Blood vessels were stained with an anti-vWF antibody and counted in five most vascularized areas at 200× magnification.

established PIN = experiment: Reversal of established PIN in 12-week-old MPAKT mice; type: in vivo; settings: for AKT expression and phosphorylation (IHC) / established PIN phenotype (H&E) / rRNA transcription / 47S rRNA level (ISH): daily i.p. 4 weeks from week 12
[4] = Acute LD50 (subcutaneous) in mice; type: in vivo
[5] = Adverse side effects in the treated mice of these studies; type: in vivo; settings: 30 mg/kg s.c. and 10 mg/kg i.p.
[6] = cited from earlier work
[7] = tested on: HT-29 human colon adenocarcinoma; settings: cited from earlier work
[8] = tested on: MDA-MB-435 human breast cancer cells; settings: cited from earlier work
AKT-induced PIN = experiment: Prevention of AKT-induced PIN in 4-week-old MPAKT mice by small-molecule ANG inhibitors; settings: for 47S rRNA level / transcription (ISH) / AKT phosphorylation (IHC) / localization of ANG in prostate epithelial cells (IHC) / PIN formation (H&E): daily i.p. 4 weeks from week 4; for PIN formation (H&E): neamine, neomycin 10 mg/kg, N65828 4 mg/kg
[9] = mouse, in vivo, sc; cited from earlier work
[10] = tested on: PC-3 human prostate cancer cells; settings: nude mice, literature; cited from earlier work
[11] = in vivo; cited from earlier work

For `C[C@]12CCC(=O)C[C@@H]1CC[C@@H]1[C@@H]2CC[C@]2(C)[C@@H](O)CC[C@@H]12` [DHT, dihydrotestosterone, reference compound], the “LNCaP cell proliferation in the absence of androgens” value (LNCaP cells) was “stimulates”.

With `O=c1c(-c2ccc(O)cc2)coc2cc(O)cc(O)c12` [Genistein] the “effect on nuclear translocation of ANG” value (ANG [1]) was “no detectable effect”.

In the case of `COc1ccc2c(c1)CC[C@@H]1[C@@H]2CC[C@]2(C)[C@@H](NCCCCCCN3C(=O)C=CC3=O)CC[C@@H]12` [U-73122], the “effect on nuclear translocation of ANG” value (ANG [1]) is reported as “only marginally block”.

In the case of `COc1ccc2c(c1)CC[C@@H]1[C@@H]2CC[C@]2(C)[C@@H](NCCCCCCN3C(=O)CCC3=O)CC[C@@H]12` [U-73343], the “effect on nuclear translocation of ANG” value (ANG [1]) is reported as “only marginally block”.

In the case of `NCC[C@H](O)C(=O)N[C@@H]1C[C@H](N)[C@@H](O[C@H]2O[C@H](CN)[C@@H](O)[C@H](O)[C@H]2O)[C@H](O)[C@H]1O[C@H]1O[C@H](CO)[C@@H](O)[C@H](N)[C@H]1O` [amikacin], the “effect on nuclear translocation of ANG” value (ANG [2]) is given as “do not block” and the anti-angiogenic activity (angiogenesis) is given as “not anti-angiogenic”.

In the case of `NC[C@H]1O[C@H](O[C@H]2[C@H](O)[C@@H](O)[C@H](N)C[C@@H]2N)[C@H](N)[C@@H](O)[C@@H]1O` [neamine], the “inhibition of tumor growth” value ([3]; day 56, from tumor weight vs control) is reported as 72.5%, the average tumor weight ([3]; day 56, neamine 30 mg/kg s.c. twice weekly, control 620±310) is reported as 170 ± 50 mg and the “tumor growth rate in animals that did develop tumors” value ([3]; neamine 30 mg/kg s.c. twice weekly) is reported as “decreased significantly”. For the same compound, the “animals in which tumor establishment was prevented” value ([3]; neamine 30 mg/kg s.c. twice weekly for 8 weeks, n=12) was 50%, the “animals with palpable tumors at day 20” value ([3]; neamine 30 mg/kg s.c. twice weekly, day 20) was 5 of the 12 and the “decrease in cell proliferation” value (PC-3 cell tumor tissues; from PCNA positive cells vs control) was 66%. For the same compound, the “decrease in tumor angiogenesis” value (PC-3 cell tumor tissues; from vessel density vs control) was 72.8%, the PCNA positive cells (PC-3 cell tumor tissues; neamine-treated PC-3 tumors, control 75.4±6) was 25.6±6.4% and the “vessel density (vWF)” value (PC-3 cell tumor tissues; neamine-treated PC-3 tumors, control 82±3.2) was 22.3±9.6 vessels per mm^2. For the same compound, the “localization of ANG in tumor cells (IHC, 26-2F)” value (PC-3 cell tumor tissues; neamine-treated PC-3 tumors, nuclear in untreated) was “most of the ANG is extracellular”, the “47S rRNA level (ISH)” value (PC-3 cell tumor tissues; neamine-treated vs control tumor tissues) was “decreased significantly” and the “AKT expression and phosphorylation (IHC)” value (established PIN) was “not affected”. The “established PIN phenotype (H&E)” value (established PIN) was “shrank established PIN”, the “rRNA transcription / 47S rRNA level (ISH)” value (established PIN) was “inhibited” and the “apoptotic index (TUNEL)” value (established PIN; neamine 10 mg/kg daily i.p. 4 weeks from week 12, untreated 0.89±0.12) was 2.15±0.17 per duct. The “mice with PIN regression” value (established PIN; neamine 10 mg/kg daily i.p. 4 weeks, 12 mice) was “all 12”, the “percentage of glands having PIN” value (established PIN; neamine 10 mg/kg daily i.p. 4 weeks, before/control 95.2±3.2) was 33% and 33.4±5.2% and the “fold by which the 30 mg/kg dose is lower than the reported LD50” value ([4]; 30 mg/kg s.c. vs LD50 1250 mg/kg) was 42 fold. For the same compound, the “fold by which LD50 is higher than the highest scheduled dose” value ([4]; LD50 1,250 mg/kg vs 160 mg/kg) was 7.8 fold, the “acute or chronic adverse side effects” value [5] was “No acute or chronic adverse side effects; also recorded: not observed” and the “nephrotoxicity relative to that of neomycin” value ([6]; cell and organ culture) was roughly 5%. The “ototoxicity relative to that of neomycin” value ([6]; cell and organ culture) was roughly 6%, the “toxicity relative to neomycin (fold less toxic)” value ([6]; toxicity profile) was “close to that of streptomycin and kanamycin” and the “effect on nuclear translocation of ANG” value (ANG [2]) was “comparable activity”. The anti-angiogenic activity (angiogenesis) was “equally effective”, the xenograft growth [7] was “inhibits” and the xenograft growth [8] was “inhibits”. The “47S rRNA level / transcription (ISH)” value (AKT-induced PIN) was “decreased dramatically”, the “AKT phosphorylation (IHC)” value (AKT-induced PIN) was “did not differ from those of controls” and the “localization of ANG in prostate epithelial cells (IHC)” value (AKT-induced PIN) was “predominantly cytoplasmic and extracellular”. The “PIN formation (H&E)” value (AKT-induced PIN) was “inhibited PIN formation”, the “vessel density (CD31) in ventral prostate” value (AKT-induced PIN; neamine 10 mg/kg daily 4 weeks, control 11.5±4.5) was 4±0.5 per mm^2 and the Ki-67 positive cells (AKT-induced PIN; neamine 10 mg/kg daily 4 weeks, untreated PIN 61.1±9.3) was 24.9±8.4%. The “percentage of PIN in the ventral prostate” value (AKT-induced PIN; neamine 10 mg/kg daily i.p. 4 weeks from week 4, control 95.1±4.3) was 39.6±1.4%.

For `NC[C@@H]1O[C@H](O[C@H]2[C@@H](O)[C@H](O[C@@H]3[C@@H](O)[C@H](N)C[C@H](N)[C@H]3O[C@H]3O[C@H](CO)[C@@H](O)[C@H](O)[C@H]3N)O[C@@H]2CO)[C@H](N)[C@@H](O)[C@@H]1O` [paromomycin], the “effect on nuclear translocation of ANG” value (ANG [1]) is listed as “does not detectably block”, the “effect on nuclear translocation of ANG” value (ANG [2]) is listed as “do not block” and the anti-angiogenic activity (angiogenesis) is listed as “not anti-angiogenic”.

For `CN[C@@H]1C[C@H]2O[C@@](C)([C@@H]1OC)n1c3ccccc3c3c4c(c5c6ccccc6n2c5c31)C(=O)NC4` [staurosporine], the “effect on nuclear translocation of ANG” value (ANG [1]) was “no detectable effect”.

For `[H]/N=C(/N)N[C@H]1[C@H](O)[C@@H](O)[C@H](O[C@@H]2O[C@@H](C)[C@](O)(C=O)[C@H]2O[C@@H]2O[C@@H](CO)[C@H](O)[C@@H](O)[C@@H]2NC)[C@@H](N/C(N)=N\[H])[C@@H]1O` [streptomycin], the “effect on nuclear translocation of ANG” value (ANG [2]) is listed as “do not block”, the anti-angiogenic activity (angiogenesis) is listed as “not anti-angiogenic” and the “acute LD50 (subcutaneous) in mice” value [9] is listed as 600 mg/kg.

In the case of gentamicin, the “effect on nuclear translocation of ANG” value (ANG [2]) is given as “do not block” and the anti-angiogenic activity (angiogenesis) is given as “not anti-angiogenic”.

With neomycin the “AKT expression and phosphorylation (IHC)” value (established PIN) was “not different from that of the control group”, the “established PIN phenotype (H&E)” value (established PIN) was “reversed” and the “rRNA transcription / 47S rRNA level (ISH)” value (established PIN) was “dramatically decreased”. The apoptotic index (established PIN; neomycin 10 mg/kg, N65828 4 mg/kg daily i.p. 4 weeks from week 12, control 0.95±0.11) was 1.95±0.19 caspase 3 positive cells per duct, the luminal cell size (established PIN; neomycin 4 weeks from week 12) was “restored cell size to normal” and the “size of the ventral prostate of a representative mouse” value (established PIN; neomycin 4 weeks from week 12, control 69.8) was 44.3 mm^3. For the same compound, the “xenograft growth of PC-3 cells” value [10] was “inhibit”, the “effect on nuclear translocation of ANG” value (ANG [2]) was “blocks” and the “renal cortical levels relative to circulating levels in serum” value [11] was no more than 20 times. For the same compound, the “47S rRNA level / transcription (ISH)” value (AKT-induced PIN) was “inhibited”, the “AKT phosphorylation (IHC)” value (AKT-induced PIN) was “not altered” and the “localization of ANG in prostate epithelial cells (IHC)” value (AKT-induced PIN) was “extracellular”. For the same compound, the “PIN formation (H&E)” value (AKT-induced PIN) was “prevented PIN formation”.
